The values below come from US20230219921A1, “KCNT1 INHIBITORS AND METHODS OF USE” (Praxis Precision Medicines, Inc., priority 2020, published 2023).

For the assay, the target named is T1, KCNT1 (KNa1.1, Slack) (Homo sapiens, UniProt Q5JUK3).
T1 construct: expressed in transfected cells; host or cells: HEK-TREX (tetracycline-inducible HEK cell line)
T1 sequence (Q5JUK3 1-1230): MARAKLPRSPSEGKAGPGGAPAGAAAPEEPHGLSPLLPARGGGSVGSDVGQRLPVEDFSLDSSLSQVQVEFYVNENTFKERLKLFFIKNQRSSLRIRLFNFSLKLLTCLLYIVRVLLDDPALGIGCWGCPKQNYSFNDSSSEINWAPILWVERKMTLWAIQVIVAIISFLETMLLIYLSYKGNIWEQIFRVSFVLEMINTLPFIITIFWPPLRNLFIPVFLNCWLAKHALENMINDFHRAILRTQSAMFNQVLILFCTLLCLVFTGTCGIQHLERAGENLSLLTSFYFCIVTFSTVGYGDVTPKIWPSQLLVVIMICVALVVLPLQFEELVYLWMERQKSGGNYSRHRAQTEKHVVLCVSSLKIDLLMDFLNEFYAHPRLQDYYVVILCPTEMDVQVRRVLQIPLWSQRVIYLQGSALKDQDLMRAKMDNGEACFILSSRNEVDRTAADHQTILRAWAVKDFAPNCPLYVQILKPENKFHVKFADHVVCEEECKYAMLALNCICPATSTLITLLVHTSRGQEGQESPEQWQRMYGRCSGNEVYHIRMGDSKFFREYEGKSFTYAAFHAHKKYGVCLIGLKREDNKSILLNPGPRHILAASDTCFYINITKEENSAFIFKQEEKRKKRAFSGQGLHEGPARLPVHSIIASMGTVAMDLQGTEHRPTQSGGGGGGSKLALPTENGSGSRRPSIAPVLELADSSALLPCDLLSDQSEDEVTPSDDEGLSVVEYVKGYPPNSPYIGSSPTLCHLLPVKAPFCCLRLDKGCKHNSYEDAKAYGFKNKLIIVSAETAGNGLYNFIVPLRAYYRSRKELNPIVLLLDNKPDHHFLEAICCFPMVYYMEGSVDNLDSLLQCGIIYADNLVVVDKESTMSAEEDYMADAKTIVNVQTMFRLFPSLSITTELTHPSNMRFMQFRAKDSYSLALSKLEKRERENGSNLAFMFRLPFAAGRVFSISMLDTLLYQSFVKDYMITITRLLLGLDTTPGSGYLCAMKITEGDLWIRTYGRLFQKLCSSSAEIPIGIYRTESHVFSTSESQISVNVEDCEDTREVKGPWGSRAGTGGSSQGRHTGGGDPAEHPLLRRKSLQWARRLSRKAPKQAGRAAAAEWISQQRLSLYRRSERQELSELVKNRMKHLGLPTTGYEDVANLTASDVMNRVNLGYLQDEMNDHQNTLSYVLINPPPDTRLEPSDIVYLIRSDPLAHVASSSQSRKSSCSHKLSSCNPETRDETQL
Nature of the assay: KCNT1 patch clamp assay (SyncroPatch 384PE automated patch clamp). Format: cell-based. Conditions: tetracycline inducible cell line (HEK-TREX); perforated patch mode; step from -80 mV to 0 mV; room temperature; read-out: KCNT1-WT IC50. As for the experimental part: Inhibition of KCNT1 (KNa1.1, Slack) was evaluated using a tetracycline inducible cell line (HEK-TREX). Currents were recorded using the SyncroPatch 384PE automated, patch clamp system. Pulse generation and data collection were performed with PatchController384 V1.3.0 and DataController384 V1.2.1 (Nanion Technologies). The access resistance and apparent membrane capacitance were estimated using built-in protocols. Current were recorded in perforated patch mode (10 μM escin) from a population of cells. The cells were lifted, triturated, and resuspended at 800,000 cells/ml. The cells were allowed to recover in the cell hotel prior to experimentation. Currents were recorded at room temperature. The external solution contained the following (in mM): NaCl 105, NMDG 40, KCl 4, MgCl2 1, CaCl2 5 and HEPES 10 (pH=7.4, Osmolarity ˜300 mOsm). The extracellular solution was used as the wash, reference and compound delivery solution. The internal solution contained the following (in mM): NaCl 70, KF 70, KCl 10, EGTA 5, HEPES 5 and Escin 0.01 (pH=7.2, Osmolarity ˜295 mOsm). Escin is made at a 5 mM stock in water, aliquoted, and stored at −20° C. The compound plate was created at 2× concentrated in the extracellular solution. The compound was diluted to 1:2 when added to the recording well. The amount of DMSO in the extracellular solution was held constant at the level used for the highest tested concentration. A holding potential of −80 mV with a 100 ms step to 0 mV was used. Mean current was measured during the step to 0 mV. […] The average mean current from 3 sweeps was calculated and the % inhibition of each compound was calculated. The % Inhibition as a function of the compound concentration was fit with a Hill equation to derive IC50, slope, min and max parameters. If KCNT1 inhibition was less than 50% at the highest tested concentration or if an IC50 could not be calculated, then a percent inhibition was reported in place of the IC50.
In this table, “A” indicates IC50 of less than or equal to 1 μM; “B” indicates inhibition of between 1 μM to 20 μM; and “C” indicates inhibition of greater than or equal to 20 μM.

SMILES strings stand for the structures. pIC50: −log10 of the molar value. Bounds are passed on as bounds.

For the compound `CS(=O)(=O)c1ccc(C(=O)NCc2ccc(C(F)(F)F)cc2)s1` [Compound 33, 5-(methylsulfonyl)-N-(4-(trifluoromethyl)benzyl)thiophene-2-carboxamide], the negative-log IC50 (pIC50) (usually the IC50 on a negative log10 scale, so that one unit is a factor of ten) was at least 6.00. In the case of `O=C(NCc1ccc(C(F)(F)F)cc1)c1ccc(S(=O)(=O)C2CC2)s1` [Compound 47, 5-(cyclopropylsulfonyl)-N-(4-(trifluoromethyl)benzyl)thiophene-2-carboxamide], the pIC50 was at least 6.00. In the case of `CNS(=O)(=O)c1ccc(C(=O)NCc2ccc(C#N)cc2)s1` [Compound 17, N-(4-cyanobenzyl)-5-(N-methylsulfamoyl)thiophene-2-carboxamide] it was 4.70 to 6.00; in that of `CNS(=O)(=O)c1ccc(C(=O)NCc2ccc(C(F)(F)F)cc2F)s1` [Compound 43, N-(2-fluoro-4-(trifluoromethyl)benzyl)-5-(N-methylsulfamoyl)thiophene-2-carboxamide], at least 6.00; in that of `CNS(=O)(=O)c1ccc(C(=O)NCc2ccc(C(F)(F)F)cc2)s1` [Compound 29, 5-(N-methylsulfamoyl)-N-(4-(trifluoromethyl)benzyl)thiophene-2-carboxamide], at least 6.00. `CNS(=O)(=O)c1ccc(C(=O)NCc2ccc(Br)cc2)s1` [Compound 21, N-(4-bromobenzyl)-5-(N-methylsulfamoyl)thiophene-2-carboxamide]: the pIC50 is at least 6.00.

Turning to `CS(=O)(=O)c1ccc(C(=O)NCc2ccc(OCC(F)(F)F)cc2)s1` [Compound 34, 5-(methylsulfonyl)-N-(4-(2,2,2-trifluoroethoxy)benzyl)thiophene-2-carboxamide], the pIC50 was 4.70 to 6.00. On to `CNS(=O)(=O)c1ccc(C(=O)NCc2ccc(OCC(F)(F)F)cc2)s1` [Compound 35, 5-(N-methylsulfamoyl)-N-(4-(2,2,2-trifluoroethoxy)benzyl)thiophene-2-carboxamide], for which the pIC50 is 4.70 to 6.00. In the case of `CCS(=O)(=O)c1ccc(C(=O)NCc2ccc(C(F)(F)F)cc2)s1` [Compound 49, 5-(ethylsulfonyl)-N-(4-(trifluoromethyl)benzyl)thiophene-2-carboxamide] it was at least 6.00; in that of `CNS(=O)(=O)c1ccc(C(=O)NCc2ccc(C(C)C)cc2)s1` [Compound 19, N-(4-isopropylbenzyl)-5-(N-methylsulfamoyl)thiophene-2-carboxamide], at least 6.00; in that of `CC(C)(C)c1ccc(CNC(=O)c2ccc(S(C)(=O)=O)s2)cc1` [Compound 32, N-(4-(tert-butyl)benzyl)-5-(methylsulfonyl)thiophene-2-carboxamide], at least 6.00.

On to `CNS(=O)(=O)c1ccc(C(=O)NCc2ccc(OC(C)C)cc2)s1` [Compound 27, N-(4-isopropoxybenzyl)-5-(N-methylsulfamoyl)thiophene-2-carboxamide], for which the negative logarithm of the IC50 (pIC50) was at most 4.70. With `CNS(=O)(=O)c1ccc(C(=O)NCc2ccc(Cl)cc2C2CC2)s1` [Compound 12, N-(4-chloro-2-cyclopropylbenzyl)-5-(N-methylsulfamoyl)thiophene-2-carboxamide], the pIC50 was at least 6.00. Consider `CNS(=O)(=O)c1ccc(C(=O)N[C@@H](C)c2ccc(Cl)cc2)s1` [Compound 5, (S)—N-(1-(4-chlorophenyl)ethyl)-5-(N-methylsulfamoyl)thiophene-2-carboxamide], for which the pIC50 is at least 6.00. Turning to `CS(=O)(=O)c1ccc(C(=O)NCc2ccc(C(F)(F)F)cc2F)s1` [Compound 42, N-(2-fluoro-4-(trifluoromethyl)benzyl)-5-(methylsulfonyl)thiophene-2-carboxamide], the pIC50 is at least 6.00. In the case of `CNS(=O)(=O)c1ccc(C(=O)NCc2ccc(N3CCCC3)cc2)s1` [Compound 30, 5-(N-methylsulfamoyl)-N-(4-(pyrrolidin-1-yl)benzyl)thiophene-2-carboxamide] it was at most 4.70; in that of `O=C(NCc1ccc(Cl)cc1Cl)c1ccc(S(=O)(=O)C2CC2)s1` [Compound 15, 5-(Cyclopropylsulfonyl)-N-(2,4-dichlorobenzyl)thiophene-2-carboxamide], at least 6.00. Consider `CC(C)S(=O)(=O)c1ccc(C(=O)NCc2ccc(C(F)(F)F)cc2)s1` [Compound 50, 5-(isopropylsulfonyl)-N-(4-(trifluoromethyl)benzyl)thiophene-2-carboxamide], for which the pIC50 is at least 6.00. Take `CNS(=O)(=O)c1ccc(C(=O)N[C@@H](C)c2ccc(Cl)cc2Cl)s1` [Compound 2, (S)—N-(1-(2,4-dichlorophenyl)ethyl)-5-(N-methylsulfamoyl)thiophene-2-carboxamide]: the pIC50 was at least 6.00.

As for `CNS(=O)(=O)c1ccc(C(=O)NCc2ccc(Cl)c(F)c2)s1` [Compound 20, N-(4-chloro-3-fluorobenzyl)-5-(N-methylsulfamoyl)thiophene-2-carboxamide], the pIC50 is at least 6.00. Regarding `CNS(=O)(=O)c1ccc(C(=O)NCc2ccc(C)cc2)s1` [Compound 22, N-(4-methylbenzyl)-5-(N-methylsulfamoyl)thiophene-2-carboxamide], the pIC50 was at least 6.00. Turning to `CNS(=O)(=O)c1ccc(C(=O)NCc2ccc(Cl)cc2)s1` [Compound 7, N-(4-chlorobenzyl)-5-(N-methylsulfamoyl)thiophene-2-carboxamide], the pIC50 is at least 6.00.

Turning to `CC(C)Nc1ccc(CNC(=O)c2ccc(S(C)(=O)=O)s2)cc1` [Compound 41, N-(4-(isopropylamino)benzyl)-5-(methylsulfonyl)thiophene-2-carboxamide], the pIC50 is at most 4.70. In the case of `CNS(=O)(=O)c1ccc(C(=O)NCc2ccc(C(F)(F)F)cc2C)s1` [Compound 45, N-(2-methyl-4-(trifluoromethyl)benzyl)-5-(N-methylsulfamoyl)thiophene-2-carboxamide] it was at least 6.00.

In the case of `CS(=O)(=O)c1ccc(C(=O)NCc2ccc(C(F)F)cc2)s1` [Compound 51, N-(4-(difluoromethyl)benzyl)-5-(methylsulfonyl)thiophene-2-carboxamide], the pIC50 is at least 6.00. With `Cc1cc(C(F)F)ccc1CNC(=O)c1ccc(S(C)(=O)=O)s1` [Compound 53, N-(4-(difluoromethyl)-2-methylbenzyl)-5-(methylsulfonyl)thiophene-2-carboxamide], the pIC50 was at least 6.00.

As to `CNS(=O)(=O)c1ccc(C(=O)NCc2ccc(Cl)cc2C)s1` [Compound 9, N-(4-chloro-2-methylbenzyl)-5-(N-methylsulfamoyl)thiophene-2-carboxamide], the negative logarithm of the IC50 (pIC50) is at least 6.00. In the case of `CC(C)Oc1ccc(CNC(=O)c2ccc(S(C)(=O)=O)s2)cc1` [Compound 25, N-(4-isopropoxybenzyl)-5-(methylsulfonyl)thiophene-2-carboxamide] it was at most 4.70.
